From patent US12274775B2, “Fatty acid esters as anti-Malassezia agents” (SYMRISE AG, priority 2019, dated 2025)
In brackets after ≈: the same amount, converted by molar mass. Read-outs that look alike come from different tables or passages of the source.

What was measured:
Test in all cases: Agar dilution test on mDixon agar, minimal inhibitory concentration (MIC)
Format in all cases: cell-based
[1] = system: M. globosa; conditions: agar dilution, pH 5.5, 32° C., up to 14 days; for MIC: Malassezia globosa, read-out: Minimal inhibitory concentration (MIC)
Method: (§1) The fatty acid esters and their mixtures were tested for growth inhibition against Malassezia. The following reference strains were included:
(§2) Tests were performed on solid media using agar dilution tests. Stock solutions of test substances were prepared in mDixon-Agar (cf. Table 2). Lower test concentrations were obtained by diluting stock solutions with fresh agar.
(§3) Preparation of liquid agar was carried out in temperated water bath. Required amounts of test substances were weighed in 130 ml of Dixon Agar and mixed with fresh Dixon-Agar to reach desired concentrations of test substances. Agar solutions with test substances were then poured into 24 well-plates. The pH value in all assays was maintained at 5.5. Preparation of test substances was done on weight per volume base. All results are expressed in parts per million (1 ppm=0.0001%).
(§4) Briefly, Malassezia strains were cultivated on selective agar for pathogenic fungi (Merck) and overlaid with a thin layer of cold-sterilized olive oil. […] Incubation was carried out at 32° C. over a maximal duration of 14 days with regular inspection and documentation of growth status. Minimal inhibitory concentrations (MICs) were determined as the lowest concentrations of test compound without visible growth. Each experiment was repeated to confirm results.

[2] = system: M. restricta; conditions: M. restricta CBS 7877, agar dilution, pH 5.5, 32° C., up to 14 days; for MIC: 336 h, read-out: Minimal inhibitory concentration (MIC)
Method: as §1, §2, §3, §4

[3] = system: M. sympodialis; conditions: up to 14 days; for MIC: 336 h, read-out: Minimal inhibitory concentration (MIC)
Method: as §1, §2, §3, §4

[4] = system: M. furfur; conditions: agar dilution, pH 5.5, 32° C., up to 14 days
Method: as §1, §2, §3, §4

[5] = CBS7705, 336 h, M. globosa CBS 7705
[6] = CBS7966, 336 h, M. globosa CBS 7966
[7] = pH 5.5, M. sympodialis ATCC 42132, pH 5.5, 32° C.
[8] = pH 5.5, M. sympodialis CBS 7222, pH 5.5, 32° C.
[9] = pH 5.5, M. sympodialis CBS 7979, pH 5.5, 32° C.
[10] = pH 5.5, M. sympodialis DSM 6171, pH 5.5, 32° C.
[11] = M. sympodialis ATCC 42132, pH 5.5, 32° C.
[12] = M. sympodialis CBS 7222, pH 5.5, 32° C.
[13] = M. sympodialis CBS 7979, pH 5.5, 32° C.
[14] = M. sympodialis DSM 6171, pH 5.5, 32° C.

| Structure (SMILES) | MIC ([1]; 336 h, M. globosa PM1) | MIC [1, 5] | MIC [1, 6] | MIC [2] | MIC [3, 7] | MIC [3, 8] | MIC [3, 9] | MIC [3, 10] | Minimal inhibitory concentration (MIC) ([1]; M. globosa CBS 7705) | Minimal inhibitory concentration (MIC) ([1]; M. globosa CBS 7966) | Minimal inhibitory concentration (MIC) ([1]; M. globosa PM1) | Minimal inhibitory concentration (MIC) [2] | Minimal inhibitory concentration (MIC) [3, 11] | Minimal inhibitory concentration (MIC) [3, 12] | Minimal inhibitory concentration (MIC) [3, 13] | Minimal inhibitory concentration (MIC) [3, 14] | Minimal inhibitory concentration (MIC) ([4]; M. furfur CBS 1878) | Minimal inhibitory concentration (MIC) ([4]; M. furfur CBS 7019) |
| --- | --- | --- | --- | --- | --- | --- | --- | --- | --- | --- | --- | --- | --- | --- | --- | --- | --- | --- |
| CCCCCCCCC(O)CO (stereo not drawn) [1,2-Decandiol] | 8000 µg/mL (≈ 45.9 mM) | 8000 µg/mL (≈ 45.9 mM) | 8000 µg/mL (≈ 45.9 mM) | 1000 µg/mL (≈ 5.74 mM) | 1000 µg/mL (≈ 5.74 mM) | 1000 µg/mL (≈ 5.74 mM) | 2000 µg/mL (≈ 11.5 mM) | 4000 µg/mL (≈ 23 mM) |  |  |  |  |  |  |  |  |  |  |
| CCCCCCCCCCC(O)CO (stereo not drawn) [1,2-Dodecandiol] | 40000 µg/mL (≈ 198 mM) | 40000 µg/mL (≈ 198 mM) | 40000 µg/mL (≈ 198 mM) | 8000 µg/mL (≈ 39.5 mM) | 2000 µg/mL (≈ 9.88 mM) | 4000 µg/mL (≈ 19.8 mM) | 4000 µg/mL (≈ 19.8 mM) | 4000 µg/mL (≈ 19.8 mM) |  |  |  |  |  |  |  |  |  |  |
| CCCCCCCC(=O)OCC(CO)OC(=O)CCCCCCC (stereo not drawn) [3-Hydroxypropyl dicaprylate] |  |  |  |  |  |  |  |  |  | 8000 ppm | 8000 ppm |  | 4000 ppm | 20000 ppm | 20000 ppm | 20000 ppm | >20000 ppm | 20000 ppm |
| C=CCCCCCCCCC(=O)OCC(CO)OC(=O)CCCCCCCCC=C (stereo not drawn) [3-Hydroxypropyl diundecylenoate] |  |  |  |  |  |  |  |  |  | 10000 ppm | 10000 ppm |  |  |  |  |  | >20000 ppm | >20000 ppm |

Second part, the compound after the results:

| MIC ([1]; 336 h, M. globosa PM1) | MIC [1, 5] | MIC [1, 6] | MIC [2] | MIC [3, 7] | MIC [3, 8] | MIC [3, 9] | MIC [3, 10] | Minimal inhibitory concentration (MIC) ([1]; M. globosa CBS 7705) | Minimal inhibitory concentration (MIC) ([1]; M. globosa CBS 7966) | Minimal inhibitory concentration (MIC) ([1]; M. globosa PM1) | Minimal inhibitory concentration (MIC) [2] | Minimal inhibitory concentration (MIC) [3, 11] | Minimal inhibitory concentration (MIC) [3, 12] | Minimal inhibitory concentration (MIC) [3, 13] | Minimal inhibitory concentration (MIC) [3, 14] | Minimal inhibitory concentration (MIC) ([4]; M. furfur CBS 1878) | Minimal inhibitory concentration (MIC) ([4]; M. furfur CBS 7019) | Structure (SMILES) |
| --- | --- | --- | --- | --- | --- | --- | --- | --- | --- | --- | --- | --- | --- | --- | --- | --- | --- | --- |
| 5000 µg/mL (≈ 42.3 mM) | 10000 µg/mL (≈ 84.6 mM) | 5000 µg/mL (≈ 42.3 mM) | 5000 µg/mL (≈ 42.3 mM) | 10000 µg/mL (≈ 84.6 mM) | 10000 µg/mL (≈ 84.6 mM) | 10000 µg/mL (≈ 84.6 mM) | 10000 µg/mL (≈ 84.6 mM) |  |  |  |  |  |  |  |  |  |  | CCCCC(O)CO (stereo not drawn) [1,2-Hexandiol] |
| 2000 µg/mL (≈ 13.7 mM) | 4000 µg/mL (≈ 27.4 mM) | 2000 µg/mL (≈ 13.7 mM) | 1000 µg/mL (≈ 6.84 mM) | 2000 µg/mL (≈ 13.7 mM) | 2000 µg/mL (≈ 13.7 mM) | 2000 µg/mL (≈ 13.7 mM) | 2000 µg/mL (≈ 13.7 mM) |  |  |  |  |  |  |  |  |  |  | CCCCCCC(O)CO (stereo not drawn) [1,2-Octandiol] |
| 10000 µg/mL (≈ 96 mM) | 20000 µg/mL (≈ 192 mM) | 10000 µg/mL (≈ 96 mM) | 10000 µg/mL (≈ 96 mM) | 20000 µg/mL (≈ 192 mM) | 20000 µg/mL (≈ 192 mM) | 20000 µg/mL (≈ 192 mM) | 20000 µg/mL (≈ 192 mM) |  |  |  |  |  |  |  |  |  |  | CCCC(O)CO (stereo not drawn) [1,2-Pentandiol] |
|  |  |  |  |  |  |  |  | 80000 ppm | 40000 ppm | 33000 ppm | 33000 ppm | 40000 ppm | 33000 ppm | 80000 ppm | 80000 ppm |  |  | OCCCO [1,3-Propandiol] |
